Test results as given in patent US5110819A, “Substituted quinolines and medicinal use thereof” (Leo Pharmaceutical Products Ltd., priority 1987, dated 1992).

Key:
cyclooxygenase = test: synthesis of cyclooxygenase products in A23187-stimulated rat peritoneal cells; type: cell-based; settings: 10^-6 M
Method: (§1) The following method was used to assay 5-lipoxygenase activity in vitro: Rat peritoneal cells were harvested by i.p. injection of 10 ml Hank's balanced salt solution (GIBCO, cat. No. 4025, U.S.A.) containing 12.5 U/ml sodium heparin (Leo, Denmark) in anaesthesized rats. The resulting cell suspension, which mainly contained macrophages, was transferred to a test tube and washed twice by centrifugation (200 g, 10 min.) and resuspended in Hank's balanced salt solution containing 0.5% bovine serum albumin (BSA) (Sigma Chem. Co., U.S.A.). The cells from 9 rats were finally resuspended in Hank's balanced salt solution (with BSA) containing 5 μCi [1-^14 C]arachidonic acid (The Radiochemical Centre, Amersham, U.K.) and incubated for 90 minutes at 37° C. This caused labelling of cell membrane phospholipids as radioactive arachidonic acid was incorporated in the 2-position of the glycerol moiety. Excess arachidonic acid was then removed by washing the cells twice as described above. The cells were finally resuspended in the same solution (without BSA) at 10^7 cells/ml. 475 μl of the cell suspension was preincubated at 37° C. for 5 minutes with either 5 μl dimethylsulphoxide (DMSO) (control tube), or 5 μl of a drug solution in DMSO. Then 20 μl of a mixture of equal volumes of the calcium ionophore A23187, 10^-4 M in ethanol (Calbiochem, U.S.A.), and 0.4M CaCl2 in water was added. The final concentration of A23187 was thus 2×10^-6 M, and of Ca^++ 8 mM. After 5 minutes of incubation the tubes were transferred to an ice-bath and centrifuged for 10 minutes at 3,000 g (4° C.). An aliquot of the supernatant was counted by liquid scintillation spectrometry in order to calculate the total radioactive release induced by A23187 in presence of drugs. A decrease in radioactive release was taken as indication of phospholipase A2 inhibition. The supernatant was then extracted with ethyl acetate (2 ml), adjusted to pH 3 with 1N HCl and further extracted with 2 ml ethyl acetate. The combined extracts were evaporated to dryness in vacuo, the residue was redissolved in a small volume of methanol and applied by means of a Desaga Autospotter™ to a silica-gel coated thin-layer plate fitted with a polar concentrating zone (Merck Art. 11798, Darmstadt, F.R.G.). The plates were developed in the organic layer of the solvent mixture ethyl acetate/acetic acid/iso-octane/water (55:10:25:50). Radioactive spots were detected by autoradiography (AGFA-GEVAERT, Osray-RPI X-ray film, Belgium), and changes induced by drugs in the metabolic pattern of arachidonic acid were quantified by a laser densitometer (LKB, Ultroscan™ 2202, Bromma, Sweden) in combination with an integrating computer (SP 4100, Spectra-Physics, San Jose, Calif., U.S.A.).
(§2) These cells produced measurable amounts of radioactive 6-keto-prostaglandinF1α, thromboxane B2, prostaglandin D2, hydroxyheptadecatrienoic acid (HHT) (all cyclooxygenase products), 5-hydroxyeicosatetraenoic acid (5-HETE) and leukotriene B4 (both 5-lipoxygenase products).
(§3) At the same time, a decrease in synthesis of the cyclooxygenase products HHT, prostaglandin D2, thromboxane B2 and 6-keto-prostaglandin F1α was not observed. This pattern of drug activity is indicative of truly specific 5-lipoxygenase inhibition.

5-lipoxygenase = 5-lipoxygenase activity in vitro (leukotriene B4 and 5-HETE production in A23187-stimulated rat peritoneal cells); type: cell-based; settings: 10^-6 M
Method: as §1, §2, §3

[1] = Pharmacological Data, IC50 (test not stated); settings: Pharmacological Data table
[2] = biological target: T1, guinea-pig tracheal strips (LTD4 concentration-response) (Cavia porcellus, UniProt Q2NNR5); test: LTD4 antagonism in guinea-pig tracheal strips (pKB); settings: for Kb: Pharmacological Data table; for pKB value: guinea-pig tracheal strips, negative logarithm of the antagonist dissociation constant
T1 construct: from tissue; host or cells: guinea-pig tracheal strips
T1 sequence (Q2NNR5 1-340): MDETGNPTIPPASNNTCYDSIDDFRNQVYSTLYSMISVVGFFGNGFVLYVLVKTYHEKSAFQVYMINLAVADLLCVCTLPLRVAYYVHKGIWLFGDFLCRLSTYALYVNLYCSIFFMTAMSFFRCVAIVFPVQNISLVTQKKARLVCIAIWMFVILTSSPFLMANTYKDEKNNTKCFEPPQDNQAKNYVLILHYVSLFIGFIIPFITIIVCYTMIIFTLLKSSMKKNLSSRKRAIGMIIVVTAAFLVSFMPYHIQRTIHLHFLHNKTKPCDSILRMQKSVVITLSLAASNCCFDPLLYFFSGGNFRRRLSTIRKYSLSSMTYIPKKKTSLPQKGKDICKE
Description: Leukotrine antagonists may be further characterized using guinea-pig tracheal strips instead of ileum strips (10). In this relevant in vitro model of human airways (11) tracheal strips are suspended in a physiological buffer containing indomethacin. A concentration-response curve to LTD4 is generated in the presence and absence of the leukotriene antagonist. From these curves the potency of a leukotriene antagonist may be expressed as the pKB value, the negative logarithm of the antagonist dissociation constant. The pKB value is determined as -log ([antagonist]/(dose ratio -1)), where the dose ratio is defined as EC50 (pressence of antagonist)/EC50 (absence of antagonist) and EC50 refers to the concentration of LTD4 eliciting 50% of the maximum response to LTD4 (12).

LTD4 receptor = biological target: T2, LTD4 receptor (Cavia porcellus, UniProt Q2NNR5); test: receptor binding: competition with [^3 H]LTD4 on guinea-pig lung membranes; settings: negative logarithm of molar concentration inhibiting binding by 50%, read-out: pIC50 value ([^3 H]LTD4 binding) (converted)
T2 construct: from tissue; host or cells: guinea-pig lung membranes
T2 sequence (Q2NNR5 1-340): T1 sequence (Q2NNR5 1-340)
Description: It is of importance to investigate the receptor binding properties of leukotriene antagonists in relation to their pKB values (13), i.e. to correlate antagonist receptor blocking with inhibition of smooth muscle contraction. Receptor binding studies may be performed with guinea-pig lung membranes in a direct competition assay between a leukotriene antagonist and [^3 H]LTD4 for binding to the LTD4 receptor (10,13).

| IC50 [1] | Kb [2] | pKB value [2] | IC50 (LTD4 receptor) | SMILES | decrease in synthesis of the cyclooxygenase products HHT, prostaglandin D2, thromboxane B2 and 6-keto-prostaglandin F1α (cyclooxygenase) | decrease in the production of leukotriene B4 and 5-HETE (5-lipoxygenase) |
| --- | --- | --- | --- | --- | --- | --- |
|  |  |  |  | O=C(O)Cc1ccc(NCc2cccc(OCc3ccc4ccccc4n3)c2)cc1 [Example 8] | not observed | significant and specific decrease |
| > 10000 nM |  |  |  | c1ccc(CNc2ccccc2OCc2ccc3ccccc3n2)cc1 [example 67] |  |  |
|  |  |  |  | O=C(O)c1ccccc1NCc1cccc(OCc2ccc3ccccc3n2)c1 [Example 2] | not observed | significant and specific decrease |
|  |  |  |  | O=C(O)CCCOc1ccccc1CNc1cccc(OCc2ccc3ccccc3n2)c1 [Example 14, 3-(2'-quinolylmethoxy)-N-(2"-carboxy-(3-propyloxy)benzyl)aniline] | not observed | significant and specific decrease |
|  |  |  |  | O=C(O)COc1ccccc1CNc1ccc(OCc2ccc3ccccc3n2)cc1 [Example 22, 4-(2'-Quinolylmethoxy)-N-(2"-carboxymethoxybenzyl)-aniline] | not observed | significant and specific decrease |
|  |  |  |  | O=C(O)CCCOc1ccc(CNc2cccc(OCc3ccc4ccccc4n3)c2)cc1 [Example 16] | not observed | significant and specific decrease |
| 40 nM |  |  |  | O=C(O)CN(Cc1ccccc1)c1cccc(OCc2ccc3ccccc3n2)c1 [ref. I] |  |  |
|  |  |  |  | O=C(O)CCOc1ccccc1CNc1cccc(OCc2ccc3ccccc3n2)c1 [Example 11] | not observed | significant and specific decrease |
|  | 3.98 nM | 8.4 | 31.6 nM | O=C(O)COc1ccc(CNc2cccc(OCc3ccc4ccccc4n3)c2)cc1 [Example 10, 3-(2'-quinolylmethoxy)-N-(4"-carboxymethoxybenzyl)aniline] |  |  |
|  |  |  |  | O=C(NO)c1ccccc1Nc1cccc(OCc2ccc3ccccc3n2)c1 [Example 21, 3-(2'-Quinolylmethoxy)-N-(2"-hydroxaminocarbonylphenyl)-aniline] | not observed | significant and specific decrease |
|  | 5.01 nM | 8.3 | 50.1 nM | O=C(O)COc1cccc(CNc2cccc(OCc3ccc4ccccc4n3)c2)c1 [Example 1, 3-(2'-Quinolylmethoxy)-N-(3"-carboxymethoxybenzyl)aniline] |  |  |
| 30 nM | 126 nM |  |  | c1ccc(CNc2cccc(OCc3ccc4ccccc4n3)c2)cc1 [example 39, reference compound] |  |  |
| 16 nM | 0.316 nM | 9.5 | 7.94 nM | O=C(O)COc1ccccc1CNc1cccc(OCc2ccc3ccccc3n2)c1 [Example 9, 3-(2'-quinolylmethoxy)-N-(2"-carboxymethoxybenzyl)aniline] | not observed | significant and specific decrease |
| 900 nM |  |  |  | c1ccc(CNc2ccc(OCc3ccc4ccccc4n3)cc2)cc1 [example 38] |  |  |
|  |  |  |  | CC(Oc1ccccc1CNc1ccc(OCc2ccc3ccccc3n2)cc1)C(=O)O (stereo not shown) [Example 13] | not observed | significant and specific decrease |
|  |  |  |  | O=C(NO)c1ccc(CN(Cc2cccc(F)c2)c2cccc(OCc3ccc4ccccc4n3)c2)cc1 [Example 20, 3(2'-Quinolylmethoxy)-N-(3"-fluorobenzyl)-N-(4'"-hydroxaminocarbonylbenzyl)aniline] | not observed | significant and specific decrease |
|  |  |  |  | CC(Oc1ccc(CNc2cccc(OCc3ccc4ccccc4n3)c2)cc1)C(=O)O (stereo not shown) [Example 12, 3-(2'-quinolylmethoxy)-N-(4"-(1-carboxyethoxy)benzyl)aniline] | not observed | significant and specific decrease |
